Source: US5668295A, “Protein involved in nicotine synthesis, DNA encoding, and use of sense and antisense DNAs corresponding thereto to affect nicotine content in transgenic tobacco cells and plants” (Philip Morris Incorporated, priority 1995, dated 1997)

Tests used:
[1] = system: putrescine N-methyltransferase ("PMT") / highly purified tobacco protein; test: Substrate specificity test: analogs substituted for putrescine in the standard PMT assay; assay type: biochemical, Nicotiana tabacum L. var. Burley 21; settings: for radioactive product formed when substituted for putrescine: standard PMT assay, 30° C., 30 minutes
Description: (§1) The reaction was started by addition of the enzyme sample, and it was carried out at 30° C. for 30 minutes. The reaction was stopped by addition of 0.5 ml of 10% (w/v) NaOH saturated with NaCl.
(§2) The radioactive product, N-[^14 C-methyl]putrescine, was separated from the substrate by solvent extraction into chloroform. After vortexing the stopped reaction mixture with 1 ml of chloroform for 90 seconds, the organic and aqueous phases were separated by centrifugation at 1600×gav for 5 minutes. A 0.5 ml aliquot of the organic phase was then assayed. The 0.5 ml aliquot of the organic phase was added to 9.5 ml of liquid scintillation cocktail (Beckman Instruments, Columbia, Md.) and radioactivity was measured by standard procedures with a liquid scintillation counter.
(§3) One unit of apparent PMT activity is defined as one nanomole of product formed per 30 min., at 30° C.
(§4) Negative controls were included with all PMT assays. Negative controls consisted of reaction mixtures minus enzyme, or reaction stopped with NaOH at time zero.
Substrate specificity tests were carried out with the highly purified tobacco protein of the present invention. 1,3-Diaminopropane and 1,5-diaminopentane (chemical analogs of putrescine) phosphatidylethanolamine (a methyl group acceptor), and N-methylputrescine(the normal product of PMT), were compared with putrescine (1,4-diaminobutane) for ability to serve as an apparent substrate for PMT.

[2] = system: putrescine N-methyltransferase ("PMT") / subject tobacco protein; test: Apparent Km determination in the apparent PMT activity assay; assay type: biochemical, Nicotiana tabacum L. var. Burley 21; settings: partially purified tobacco protein; S-adenosylmethionine in excess
Description: as §1, §2, §3, §4

| Compound | radioactive product formed when substituted for putrescine [1] | further results |
| --- | --- | --- |
| NCCCN [1,3-diaminopropane, 1,3-Diaminopropane] | no detectable amount of radioactive product was formed |  |
| NCCCCCN [1,5-diaminopentane] | no detectable amount of radioactive product was formed |  |
| CNCCCCN [N-methylputrescine] |  | radioactive product formation relative to that observed with putrescine ([1]; substituted for putrescine in the PMT assay): less than 6% |
| NCCCCN [putrescine, 1,4-diaminobutane] |  | Km [2]: ~400 µM |
| phosphatidylethanolamine | no detectable amount of radioactive product was formed |  |
